Patent publication US6590118B1, “Aromatic compounds” (Novo Nordisk A/S, priority 1999, dated 2003)

SMILES	melting point
O=C(O)c1ccc(Oc2ccccc2NC(=O)c2cccc([N+](=O)[O-])c2)c(C(=O)O)c1 [Compound 122, 4-[2-(3-Nitrobenzoylamino)phenoxy]isophthalic acid]	255 to 257 °C
O=C(O)c1cc(Oc2ccccc2NC(=O)c2cccc([N+](=O)[O-])c2)cc(C(=O)O)c1 [Compound 121, 5-[2-(3-Nitrobenzoylamino)phenoxy]isophthalic acid]	184 to 190 °C
COC(=O)c1ccc(C(=O)c2ccccc2NC(=O)c2cccc([N+](=O)[O-])c2)cc1C(=O)OC [Compound 115, 4-[2-(3-Nitrobenzoylamino)benzoyl]phthalic acid dimethyl ester]	133 to 137 °C
CC(=O)Nc1ccccc1Oc1ccc(C#N)c(C#N)c1 [Compound 94, N-[2-(3,4-Dicyanophenoxy)phenyl]acetamide]	152.2 to 153.7 °C
COC(=O)c1ccc(C(=O)c2ccc(NC(=O)c3cccc([N+](=O)[O-])c3)cc2)cc1C(=O)OC [Compound 114, 4-[4-(3-Nitrobenzoylamino)benzoyl]phthalic acid dimethyl ester]	144 to 146 °C

Continued, values first:

melting point	SMILES
176.5 to 178.1 °C	N#Cc1ccc(Oc2ccccc2NC(=O)c2cccc([N+](=O)[O-])c2)cc1C#N [Compound 176, N-[2-(3,4-Dicyanophenoxy)phenyl]-3-nitrobenzamide]
176 to 178.2 °C	O=C(Cc1cc([N+](=O)[O-])ccc1Cl)Nc1ccccc1Oc1ccc(C(=O)O)c(C(=O)O)c1 [Compound 175, 4-{2-[2-(2-Chloro-5-nitrophenyl)acetylamino]phenoxy}phthalic acid]
172.8 to 173.9 °C	O=C(Nc1ccccc1Sc1ccc(C(=O)O)c(C(=O)O)c1)c1cccc([N+](=O)[O-])c1 [Compound 125, 4-[2-(3-Nitrobenzoylamino)phenylsulphenyl]phthalic acid]
225 to 227 °C	O=C(Nc1ccc(Oc2ccc(C(=O)O)c(C(=O)O)c2)cc1)c1cccc([N+](=O)[O-])c1 [Compound 123, 4-[4-(3-Nitrobenzoylamino)phenoxy]phthalic acid]
202 to 208 °C	O=C(O)c1cccc(NC(=O)c2ccccc2Oc2ccc(C(=O)O)c(C(=O)O)c2)c1 [Compound 134, 4-[2-(3-Carboxyphenylcarbamoyl)phenoxy]phthalic acid]
187.8 to 189.9 °C	O=C(Cc1ccc(O)c([N+](=O)[O-])c1)Nc1ccccc1Oc1ccc(C(=O)O)c(C(=O)O)c1 [Compound 174, 4-{2-[2-(4-Hydroxy-3-nitrophenyl)-acetylamino]phenoxy}phthalic acid]
